Assay results from US20110034504A1, “AGENT FOR PREVENTING AND/OR TREATING VASCULAR DISEASES” (Astellas Pharma Inc., priority 2008, published 2011).
Read-outs that look alike come from different tables or passages of the source.

Legend:
[1] = test system: iron chloride-induced thrombus (abdominal aorta); test: ferric chloride-induced thrombosis model in guinea pigs; format: in vivo, guinea pig; conditions: for total protein content of thrombi, concomitant administration compared with single administration groups: oral; for total protein content of thrombi, comparison with control (vehicle administration group): single drug, Student's t-test
Description: Verification of anti-thrombotic action was carried out using a ferric chloride-induced thrombosis model in guinea pigs, by partially modifying the experiment described in “Thrombosis Research” (1990, vol. 60, p. 269-280). Using 0.5% methyl cellulose solution as the vehicle, clopidogrel solution, aspirin suspension and Compound A suspension were prepared. […] Thrombus was induced by the following procedure. Each guinea pig was laparotomized while under pentobarbital anesthesia, and abdominal aorta was carefully detached from the surrounding tissues. […] The filter paper was removed 10 minutes thereafter, followed by 45 minutes of standing under subdued light. Both ends of the injured part of the detached blood vessel were closed with clips, and inside thereof was cut out using scissors to collect the blood vessel. By cutting open the thus collected blood vessel vertically, the thrombi formed in the blood vessel were taken out using a pair of tweezers and dissolved in 0.5 mol/1 of NaOH. Protein concentration was determined using DC protein assay kit (mfd. by BIO-RAD Laboratories) and in accordance with the protocols. Using total protein content of the formed thrombi as the index of anti-thrombotic effect, Statistical analysis between respective groups was performed by using Student's t-test.

gastric mucosa = test: influence of drugs upon gastric mucosa in normal guinea pigs; format: in vivo, guinea pig; conditions: for gastric mucosal lesion (length): 3 hours after administration
Description: Examination of the influence of drugs exerting upon gastric mucosa was carried out using normal guinea pigs. Using 0.5% methyl cellulose solution as the vehicle, clopidogrel solution, aspirin suspension and Compound A suspension were prepared. […] Also, in the evaluation at the time of concomitant administration of clopidogrel with aspirin or Compound A, in addition to 3 mg/kg of clopidogrel, 300 mg/kg of aspirin was simultaneously administered in the aspirin concomitant use group, and 100 mg/kg of Compound A in the Compound A concomitant use group. After 3 hours of the administration, each guinea pig was sacrificed by deep anesthesia with carbon dioxide, and the stomach was quickly removed. The gullet part of the extracted stomach was ligated, 15 ml of 4% neutral buffered formalin solution was injected from the pylorus part, and then light fixation was carried out by immersing in the same solution for about 1 hour after ligating the pylorus part. Thereafter, the stomach was cut open along the greater curvature of stomach, and the length (mm) of gastric mucosal lesion was measured using a stereoscopic microscope. Statistical analysis between respective groups was performed by using Wilcoxon rank sum test.

COX-1 = target: T1, COX-1 (Cavia porcellus, UniProt H0V9X9); test: coagulation-induced Thromboxane B2 (TXB2) production inhibition using guinea pig whole blood after oral administration; format: in vivo; conditions: concomitant use with 1 mg/kg of clopidogrel, read-out: inhibitory rate of coagulation-induced TXB2 production relative to the vehicle group
T1 construct: from tissue; host or cells: whole blood from the abdominal aorta of male Hartley guinea pigs
T1 sequence (H0V9X9 25-553): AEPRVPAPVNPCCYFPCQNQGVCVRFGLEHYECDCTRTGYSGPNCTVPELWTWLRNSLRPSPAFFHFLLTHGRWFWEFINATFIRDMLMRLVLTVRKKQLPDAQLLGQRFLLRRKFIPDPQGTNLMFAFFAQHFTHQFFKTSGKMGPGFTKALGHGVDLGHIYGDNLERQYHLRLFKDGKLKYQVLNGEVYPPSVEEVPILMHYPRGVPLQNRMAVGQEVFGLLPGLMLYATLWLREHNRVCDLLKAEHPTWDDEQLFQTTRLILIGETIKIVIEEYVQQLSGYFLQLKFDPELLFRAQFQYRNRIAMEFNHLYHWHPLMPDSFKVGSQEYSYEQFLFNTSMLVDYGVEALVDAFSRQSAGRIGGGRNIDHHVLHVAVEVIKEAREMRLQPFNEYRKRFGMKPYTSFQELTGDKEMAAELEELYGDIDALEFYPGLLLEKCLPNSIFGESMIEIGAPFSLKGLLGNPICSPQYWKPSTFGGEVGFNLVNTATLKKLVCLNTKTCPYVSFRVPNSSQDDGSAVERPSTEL
Description: Examination on the selectivity of inhibitory effect on Cyclooxygenase (COX)-½ was carried out based on, as indexes, the coagulation-induced Thromboxane B2 (TXB2) production inhibition (COX-1 inhibition) and the LPS-induced Prostaglandin E2 (PGE2) production inhibition using guinea pig whole blood. As the vehicle, 0.5% methyl cellulose solution was used. By dissolving clopidogrel and suspending aspirin and Compound A therein, clopidogrel was orally administered 2 hours before the blood collection, and aspirin and Compound A 1 hour before thereof, to male Hartley guinea pigs which had been subjected to fasting (drug administered groups). On the other hand, as the vehicle administration group, clopidogrel was orally administered 2 hours before the blood collection, and the vehicle 1 hour before thereof. […] TXB2 concentration in the serum was measured using a TXB2 EIA Kit (mfd. by Cayman Chemicals). […] PGE2 concentration in the buffer was measured using a PGE2 EIA Kit (mfd. by Cayman Chemicals). Inhibitory rate of each of the TXB2 concentration and PGE2 concentration relative to the vehicle group was calculated using a calculation formula [100-(drug administration group concentration/solvent administration concentration)×100 (%)], and significant difference from the vehicle group was tested using Student's t-test.

COX-2 = target: T2, COX-2 (Cavia porcellus, UniProt P70682); test: LPS-induced Prostaglandin E2 (PGE2) production inhibition using guinea pig whole blood after oral administration; format: in vivo; conditions: read-out: inhibitory rate of LPS-induced PGE2 production relative to the vehicle group
T2 construct: The sodium citrate-added whole blood was mixed with LPS to a final concentration of 100 μg/ml, incubated at 37° C. for 24 hours; from tissue; host or cells: citrated whole blood of male Hartley guinea pigs, stimulated with LPS
T2 sequence (P70682 18-604): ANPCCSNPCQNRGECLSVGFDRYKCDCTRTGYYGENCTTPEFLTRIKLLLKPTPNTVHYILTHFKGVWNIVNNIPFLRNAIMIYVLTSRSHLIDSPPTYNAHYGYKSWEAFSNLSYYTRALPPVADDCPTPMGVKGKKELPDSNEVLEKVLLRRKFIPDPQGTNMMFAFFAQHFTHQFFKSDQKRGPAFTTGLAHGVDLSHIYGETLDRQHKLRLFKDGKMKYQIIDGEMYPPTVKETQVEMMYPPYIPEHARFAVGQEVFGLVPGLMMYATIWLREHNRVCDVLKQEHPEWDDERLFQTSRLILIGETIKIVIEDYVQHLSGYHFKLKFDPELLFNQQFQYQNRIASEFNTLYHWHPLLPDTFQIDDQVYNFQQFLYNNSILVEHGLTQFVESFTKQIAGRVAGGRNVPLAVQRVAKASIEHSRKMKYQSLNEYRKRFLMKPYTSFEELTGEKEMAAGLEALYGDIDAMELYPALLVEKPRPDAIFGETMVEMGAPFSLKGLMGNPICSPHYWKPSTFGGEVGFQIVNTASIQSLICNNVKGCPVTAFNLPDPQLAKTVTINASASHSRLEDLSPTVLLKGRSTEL
Description: Examination on the selectivity of inhibitory effect on Cyclooxygenase (COX)-½ was carried out based on, as indexes, the coagulation-induced Thromboxane B2 (TXB2) production inhibition (COX-1 inhibition) and the LPS-induced Prostaglandin E2 (PGE2) production inhibition using guinea pig whole blood. As the vehicle, 0.5% methyl cellulose solution was used. […] On the other hand, as the vehicle administration group, clopidogrel was orally administered 2 hours before the blood collection, and the vehicle 1 hour before thereof. Each guinea pig was laparotomized while under ether anesthesia, 4 ml of blood was collected from the abdominal aorta, and 1 ml thereof was put into an anticoagulant-un-added tube and allowed to stand still and then 3 ml thereof was put into a tube charged with 300 μl of sodium citrate, followed by tipping mixing. […] PGE2 concentration in the buffer was measured using a PGE2 EIA Kit (mfd. by Cayman Chemicals). Inhibitory rate of each of the TXB2 concentration and PGE2 concentration relative to the vehicle group was calculated using a calculation formula [100-(drug administration group concentration/solvent administration concentration)×100 (%)], and significant difference from the vehicle group was tested using Student's t-test.

[2] = thromboembolism patients, CAPRIE trial; cited from earlier work
[3] = cited from earlier work
[4] = clopidogrel combined with aspirin, cited from earlier work
[5] = combination use of aspirin and clopidogrel, cited from earlier work

Structure (SMILES): COc1ccc(-c2nc(OC)nn2-c2ccc(OC)cc2)cc1 [Compound A, 3-methoxy-1,5-bis(4-methoxyphenyl)-1H-1,2,4-triazole]
- total protein content of thrombi, compared with concomitant administration group of clopidogrel and aspirin ([1]; 3 mg/kg Compound A + 1 mg/kg clopidogrel vs 300 mg/kg aspirin + 1 mg/kg clopidogrel): statistically significant difference from a concomitant administration group of clopidogrel and aspirin
- total protein content of thrombi, concomitant administration compared with single administration groups ([1]; 3 mg/kg Compound A concomitantly with 1 mg/kg clopidogrel): statistically significant difference from the clopidogrel single administration group (CLO 1) and Compound A single administration group (Comp A 3)
- total protein content of thrombi, comparison with control (vehicle administration group) ([1]; Compound A 3 mg/kg orally 1 hour before thrombus induction): statistically significant difference
- gastric mucosal lesion (length) (gastric mucosa; 100 mg/kg oral, single drug): a clear action for gastric mucosa cannot be confirmed
- gastric mucosal lesion (length) (gastric mucosa; Compound A 100 mg/kg concomitantly with clopidogrel 3 mg/kg, oral): a clear action for gastric mucosa cannot be confirmed
- inhibition at 3 mg/kg (COX-1; 3 mg/kg Compound A orally): 82.1%
- inhibition at 3 mg/kg (COX-2; 3 mg/kg Compound A orally, concomitant use with 1 mg/kg of clopidogrel): 10.1%

Structure (SMILES): CC(=O)Oc1ccccc1C(=O)O [aspirin]
- total protein content of thrombi, concomitant administration compared with single administration groups ([1]; 300 mg/kg aspirin concomitantly with 1 mg/kg clopidogrel): significant difference from the clopidogrel single administration group (CLO 1), but a significant difference was not found in comparison with the aspirin single administration group (ASA 300)
- total protein content of thrombi, comparison with control (vehicle administration group) ([1]; aspirin 300 mg/kg orally 1 hour before thrombus induction): statistically significant difference
- gastric mucosal lesion (length) (gastric mucosa; 300 mg/kg oral, single drug): Gastric mucosal damage was clearly formed
- gastric mucosal damage at concomitant administration with clopidogrel compared with aspirin alone (gastric mucosa; aspirin 300 mg/kg + clopidogrel 3 mg/kg vs aspirin 300 mg/kg alone): becomes worse
- gastric mucosal lesion (length) (gastric mucosa; aspirin 300 mg/kg concomitantly with clopidogrel 3 mg/kg, oral): Gastric mucosal damage was also clearly induced
- inhibition at 300 mg/kg (COX-1; 300 mg/kg aspirin orally): 100%
- inhibition at 300 mg/kg (COX-2): 90.4%
- event onset ratio [2]: 5.32 %/year
- event inhibition ratio ([3]; 75 mg or less, meta-analysis): 13%
- event inhibition ratio ([3]; administration of from 75 to 150 mg, meta-analysis): 32%
- event inhibition ratio ([3]; administration of from 160 to 325 mg, meta-analysis): 26%
- event inhibition ratio ([3]; administration of from 500 to 1500 mg, meta-analysis): 19%
- event inhibition ratio ([3]; high risk patients, low dose aspirin): about 25%

Structure (SMILES): COC(=O)[C@H](c1ccccc1Cl)N1CCc2sccc2C1 [clopidogrel, methyl (+)-(S)-2-(2-chlorophenyl)-2-(4,5,6,7-tetrahydrothieno[3,2-c]pyridin-5-yl)acetate]
- total protein content of thrombi, comparison with control (vehicle administration group) ([1]; clopidogrel 1 mg/kg orally 2 hours before thrombus induction): statistically significant difference
- gastric mucosal lesion (length) (gastric mucosa; 100 mg/kg oral, single drug): a clear action for gastric mucosa cannot be confirmed
- event onset ratio [2]: 5.83 %/year
- lowering of the event onset ratio based on aspirin [2]: 8.7%
- reduction of event ratio in combination use group in comparison with the aspirin alone group ([4]; non-ST increase ACS patients): 20%
- hemorrhagic side effects in the combination use group [4]: significantly increased
- primary prevention effect ([5]; low risk patients): usefulness of the combination group was not found
- secondary thrombotic event inhibition effect ([5]; patients of ischemic diseases): significant secondary thrombotic event inhibition effect
